“Also recorded” adds a separate entry of the source.
Tests used:
Assay type in all cases: cell-based
human bone marrow MSC [1] = assay: Bead-based immunoassay (Luminex) of cytokines in MSC culture supernatant; settings: 250 μg/mL, 24 h
Procedure: Human bone marrow MSC were expanded and seeded into six (6) T225 flasks using standard growth medium (Table 1). At 95-99% confluency, cells were thoroughly washed with PBS. Three (3) flasks were replenished with basal media containing 250 μg/mL treprostinil, (+)Tre, and the remaining three (3) flasks were replenished with unsupplemented basal media, (−)Tre. After 24 hours of culture, representative images were captured from (+) Tre and (−) Tre cultures. Conditioned media was collected from each replicate, divided into two samples of appropriate volumes, and analyzed separately for: 1) secreted proteins (Myriad RBM InflammationMAP® 1.0) and 2) exosome RNA content. Cells were lysed directly from culture flasks, processed for total RNA isolation, and analyzed for gene expression by microarray (Illumina Human HT12 Expression BeadChip). Bead-based immunoassays (Luminex) was performed to assess the concentration of 46 cytokines in cell culture supernatants (Myriad RBM Human InflammationMAP® 1.0). Of the 46 evaluated, 6 were differentially secreted in treprostinil-treated and -untreated MSC cultures (see Table 6, n=3 per group). Asterisks indicate statistical significance between the groups based on a Student's T Test (*p<0.001, or **p<0.0001).

human bone marrow MSC [2] = assay: VEGF-A gene expression in MSC by qRT-PCR
Procedure: Conditioned media was assayed for VEGF by ELISA after 24 hours of treprostinil exposure (n=4 replicates). Cells from those replicates were lysed, and RNA was extracted to determine VEGF-A gene expression by qRT-PCR. Cells from the remaining two (2) replicates were trypsinized, and assayed for cell viability by trypan blue exclusion. Cell culture supernatant was assayed for VEGF protein by ELISA (FIG. 3A, n=4). Cell lysates from those cultures were assayed for VEGF-A gene expression by qRT-PCR, and normalized to the control value (FIG. 3B, n=4). In both figures, error bars represent the standard deviation in each test group. To characterize the effect of treprostinil on MSC, cells were analyzed by qRT-PCR and microarray to identify changes in gene expression (4). Cell culture supernatant media was assayed for selected inflammatory cytokines by bead-based immunoassays (2). Secreted vesicles were isolated from cell culture supernatant, and assayed for RNA content by qRT-PCR (7). Vesicles were also assayed for size and concentration by tunable resistive pulse sensing, or TRPS (7) (refer to Example 4).

[3] = tested on: human bone marrow mesenchymal stem cells (BM-MSC); assay: VEGF secretion by MSC, ELISA of conditioned media
Procedure: A single vial of human bone marrow-derived MSC was expanded and seeded into twenty (20) wells of 6-well plates using standard growth medium. At 95-99% confluency, cells were thoroughly washed with phosphate-buffered saline (PBS). Cells were then exposed to media containing 0, 0.1, 1.0, 10, or 100 μg/mL of treprostinil (n=4 wells for each concentration). After 24 hours of culture, the conditioned media was collected from each replicate and analyzed for Vascular Endothelial Growth Factor (VEGF) protein by enzyme-linked immunosorbent assay (ELISA). The goal of this experiment was to determine the optimal concentration of treprostinil needed to elicit a cellular response in MSC (using VEGF as a read out). A follow-up experiment to Example 1 was conducted to determine if treprostinil concentrations above 100 μg/mL affected MSC secretion of VEGF. As before, a single vial (same lot/batch) of bone marrow-derived MSC was expanded to thirty (30) wells of 6-well plates using standard growth medium. At 95-99% confluency, cells were thoroughly washed with PBS. Cells were then exposed to media containing 0, 100, 200, 300, or 400 μg/mL of treprostinil (n=6 wells for each concentration). Conditioned media was assayed for VEGF by ELISA after 24 hours of treprostinil exposure (n=4 replicates). Cells from those replicates were lysed, and RNA was extracted to determine VEGF-A gene expression by qRT-PCR. Cells from the remaining two (2) replicates were trypsinized, and assayed for cell viability by trypan blue exclusion. Cell culture supernatant was assayed for VEGF protein by ELISA (FIG. 3A, n=4). Cell lysates from those cultures were assayed for VEGF-A gene expression by qRT-PCR, and normalized to the control value (FIG. 3B, n=4). In both figures, error bars represent the standard deviation in each test group.

Compound: CCCCC[C@H](O)CC[C@@H]1[C@H]2Cc3cccc(OCC(=O)O)c3C[C@H]2C[C@H]1O [treprostinil]
- IL-6 production, fold more compared to control MSC (human bone marrow MSC [1]): ~50 fold
- MCP-1 secretion, fold less than control MSC (human bone marrow MSC [1]): 6-7 fold
- Interleukin-8 (IL-8) secretion (human bone marrow MSC [1]; DECREASED vs (−) Treprostinil 2.4 +/− 1.0 pg/ml): Below detection
- Tissue Inhibitor of Metalloproteinases 1 (TIMP-1) secretion (human bone marrow MSC [1]; DECREASED vs (−) Treprostinil 29 +/− 3 ng/ml, p<0.001): 12 ± 1 ng/mL
- Monocyte Chemotactic Protein 1 (MCP-1) secretion (human bone marrow MSC [1]; DECREASED vs (−) Treprostinil 379 +/− 35 pg/ml, p<0.0001): 47 ± 9 pg/mL
- Ferritin (FRTN) secretion (human bone marrow MSC [1]; INCREASED vs (−) Treprostinil 0.70 +/− 0.11 ng/mL): 0.96 ± 0.01 ng/mL
- Interleukin-6 (IL-6) secretion (human bone marrow MSC [1]; INCREASED vs (−) Treprostinil 62 +/− 6 pg/ml, p<0.0001): 3580 ± 384 pg/mL
- Vascular Endothelial Growth Factor (VEGF) secretion (human bone marrow MSC [1]; INCREASED vs (−) Treprostinil 235 +/− 16 pg/ml, p<0.0001): 612 ± 37 pg/mL
- VEGF-A gene expression vs untreated controls (human bone marrow MSC [2]; 100 μg/mL, 24 h): not significantly different from untreated controls
- VEGF-A gene expression, fold increase (human bone marrow MSC [2]; 200 μg/mL, 24 h): over 5 fold
- VEGF-A expression, fold over untreated controls (qRT-PCR) (human bone marrow MSC [2]; 250 μg/mL, 24 h (FIG. 8, upper panel)): ~3.5 fold
- VEGF secretion, fold increase vs untreated controls ([3]; 100 μg/mL, 24 h (Example 2)): ~2 fold
- VEGF secretion, fold of control values ([3]; 200 μg/mL, 24 h (Example 2)): 3 fold
- VEGF secretion (ELISA) ([3]; 0.1, 1.0, 10, 100 μg/mL, 24 h, vs 0 μg/mL (Example 1, FIG. 2)): no statistically significant differences; also recorded: slight trend of increased VEGF secretion
- VEGF secretion at higher concentrations ([3]; above 200 μg/mL (300, 400 μg/mL), 24 h): did not increase above this value
